This is an account of results in patent publication US20180221487A1, “NOVEL PROTEIN TRANSFECTION COMPOSITIONS AND USES THEREOF” (Chang Gung Memorial Hospital, Linkou, priority 2017, published 2018).

“Also recorded” adds a separate entry of the source.

Data set [1] has as its system human ovarian cancer cells. Nature of the data set: HEPES-mediated protein transfection pathway with endocytic inhibitors. It is filed as cell-based. Conditions: pretreatment 30 min: 0.2-0.4 M sucrose, 5 μg/ml filipin or 0.0125-0.25 mM amiloride; 20 mM HEPES; after 4 hours and 24 hours. Here is the method:
Immunofluorescent staining procedure: After protein transfection is completed, the cells in the culture dish were washed three times with phosphate buffered saline (PBS) and fixed with 4% paraformaldehyde for 20 min. The cells were washed again with PBS, perforated with 0.1% Triton X-100 for 5 min, and blocked with 10% BSA for 30 min. For Alexa Fluor 488 anti-mouse IgGs, cells were stained with DAPI for 10 min. For B23, histone 1 or GAPDH antibody transfection, cells were stained with Alexa Fluor 488 or 546 anti-mouse IgG antibodies for 30 min and then stained with DAPI. For […]1 proteins or Flag-Rev peptides transfection, cells were stained with anti-v5 or anti-flag antibodies, respectively, and then stained with Alexa Fluor 488 anti-mouse IgG and DAPI. All images were detected by confocal microscopes (Leica, Wetzlar, Germany). The fluorescent signals were analyzed and quantified by Q-Win software (Leica, Wetzlar, Germany). An in vitro evaluation of HEPES-mediated protein transfection pathway was performed using the following endocytic inhibitors: sucrose (a clathrin-mediated endocytic inhibitor), filipin (a caveolae-mediated endocytic inhibitor) and amiloride (a macropinocytic inhibitor). Human ovarian cancer cells were pretreated with Opti-MEM (the control group), 0.2-0.4 M sucrose, 5 μg/ml filipin or 0.0125-0.25 mM amiloride for 30 min, followed by the transfection of Alexa Fluor 488 anti-mouse IgG antibodies using 20 mM HEPES buffer according to the steps in Example 1. The IgG antibody transfection efficiency was assessed by confocal fluorescent microscopy. […] The fluorescent signals of IgG were quantified by Q-Win software, expressed as a relative ratio in FIGS. 12C and 12D (error bars indicate s.e.m. (n=3) and asterisk denotes significant difference, P<0.001). […] The HEPES mediated protein transfection is induced by at least one of the following pathways: clathrin-mediated or caveolae-mediated endocytosis, or macropinocytosis.

For the next data set, the system named is colon cancer. Nature of the data set: Alexa Fluor 488 anti-mouse IgG transfection, immunofluorescent staining. Type of data set: cell-based. Conditions: HEPES buffer 20 mM-40 mM. Here is the method: (§1) Immunofluorescent staining procedure: After protein transfection is completed, the cells in the culture dish were washed three times with phosphate buffered saline (PBS) and fixed with 4% paraformaldehyde for 20 min. The cells were washed again with PBS, perforated with 0.1% Triton X-100 for 5 min, and blocked with 10% BSA for 30 min. For Alexa Fluor 488 anti-mouse IgGs, cells were stained with DAPI for 10 min. For B23, histone 1 or GAPDH antibody transfection, cells were stained with Alexa Fluor 488 or 546 anti-mouse IgG antibodies for 30 min and then stained with DAPI. For […]1 proteins or Flag-Rev peptides transfection, cells were stained with anti-v5 or anti-flag antibodies, respectively, and then stained with Alexa Fluor 488 anti-mouse IgG and DAPI. All images were detected by confocal microscopes (Leica, Wetzlar, Germany). The fluorescent signals were analyzed and quantified by Q-Win software (Leica, Wetzlar, Germany). FIG. 1 schematically illustrates the protein transfection procedure. Briefly, the protein of interest and a protein transfection composition, such as HEPES buffer, were mixed and incubated for about 15 min to about 30 min to form a mixture (Panel A). Cells to be transfected were replaced in a minimal essential medium (Panel B). The mixture in Panel A was added to the cells in Panel B and incubated at 37° C. for about 4 to about 24 hours (Panel C). The protein transfection efficiency can be analyzed using immunofluorescent staining or flow cytometry (Panel D). Alexa Fluor 488 anti-mouse IgG or […]1 were incubated with Opti-MEM (the control group) or HEPES buffer (20 mM-40 mM) to transfect the following cancer cells according to the steps in Example 1: human cervical cancer cells, human breast cancer cells (MCF7, BRCA009 or BRCA011), human endometrial cancer cells, lung adenocarcinoma cells, human pancreatic cancer cells, hepatocellular carcinoma cells, scarcoma cells, renal cell carcinoma cells, lymphoma cells, nasopharyngeal carcinoma cells, brain tumor cells, colon cancer cells, and leukemic cells. The protein transfection efficiency was assessed by flow cytometry or confocal microscope.

The next data set concerns brain tumor. Described as above. Type of data set: cell-based. The settings on record: HEPES buffer 20 mM-40 mM. On the procedure:
as §1

In a further data set the test system is renal cell carcinoma. The data set is described as above. Type of data set: cell-based. The settings on record: HEPES buffer 20 mM-40 mM. On the procedure: as §1
The subject of the next data set is non Hodgkin's lymphoma. The description is as above. The settings on record: HEPES buffer 20 mM-40 mM. Type of data set: cell-based. On the procedure: as §1
The next data set relates to nasopharyngeal carcinoma. The data set is described as above. It is filed as cell-based. Conditions: HEPES buffer 20 mM-40 mM. Here is the method:
as §1

The test system of a further data set is leukemia cells. The description is as above. It is filed as cell-based. Conditions: HEPES buffer 20 mM-40 mM. Here is the method: as §1
For a further data set, the system named is scarcoma cells. The description is as above. Type of data set: cell-based. Conditions: HEPES buffer 20 mM-40 mM. Here is the method:
as §1

In data set [2] the test system is breast cancer cells (BRCA009). The data set is described as above. Type of data set: cell-based, human. The settings on record: after 6 hours of incubation. Here is the method:
(§2) Immunofluorescent staining procedure: After protein transfection is completed, the cells in the culture dish were washed three times with phosphate buffered saline (PBS) and fixed with 4% paraformaldehyde for 20 min. The cells were washed again with PBS, perforated with 0.1% Triton X-100 for 5 min, and blocked with 10% BSA for 30 min. For Alexa Fluor 488 anti-mouse IgGs, cells were stained with DAPI for 10 min. For B23, histone 1 or GAPDH antibody transfection, cells were stained with Alexa Fluor 488 or 546 anti-mouse IgG antibodies for 30 min and then stained with DAPI. For […]1 proteins or Flag-Rev peptides transfection, cells were stained with anti-v5 or anti-flag antibodies, respectively, and then stained with Alexa Fluor 488 anti-mouse IgG and DAPI. All images were detected by confocal microscopes (Leica, Wetzlar, Germany). The fluorescent signals were analyzed and quantified by Q-Win software (Leica, Wetzlar, Germany). FIG. 1 schematically illustrates the protein transfection procedure. Briefly, the protein of interest and a protein transfection composition, such as HEPES buffer, were mixed and incubated for about 15 min to about 30 min to form a mixture (Panel A). […] The protein transfection efficiency can be analyzed using immunofluorescent staining or flow cytometry (Panel D). […] The protein transfection efficiency was assessed by flow cytometry or confocal microscope.

The test system of data set [3] is breast cancer cells (BRCA011). The description is as above. Type of data set: cell-based, human. Conditions: after 24 hours of incubation. Here is the method: as §2
A further data set relates to endometrial cancer cells. In words: Cytotoxicity of HEPES buffer concentrations (MTT and LDH assay). It is filed as cell-based, human. Conditions: Opti-MEM and HEPES buffer 0-200 mM, 24 h. On the procedure:
(§3) MTT and LDH assay: In MTT assay, the cells were incubated for 24 h and then centrifuged at 1500 rpm for 5 min. The supernatants were discarded and attached cells were analyzed by MTT reagent (Promega Corporation, Wisconsin, US). In LDH assay, the cells were incubated for […] and then centrifuged at 1500 rpm for 5 min. The supernatants were collected and analyzed by LDH reagent (Sigma, St. Louis, Mo., USA). The cell viability (MTT assay) and cytotoxicity (LDH assay) were assayed following the manufacturer's protocol. The MTT and LDH signals were detected by ELISA Reader (Tecan Systems, Inc., San Jose, Calif., USA).
(§4) The cytotoxicity of various HEPES buffer concentrations was evaluated. Human ovarian cancer cells and endometrial cancer cells were incubated in Opti-MEM and HEPES buffer (0-200 mM) for 24 h. Cell viability and cytotoxicity were analyzed by MTT and LDH assay, respectively.

Data set [4] concerns human ovarian cancer cells (MDAH2774). Nature of the data set: Protein transfection, immunofluorescent staining / confocal microscopy. It is filed as cell-based. On the procedure:
Immunofluorescent staining procedure: After protein transfection is completed, the cells in the culture dish were washed three times with phosphate buffered saline (PBS) and fixed with 4% paraformaldehyde for 20 min. The cells were washed again with PBS, perforated with 0.1% Triton X-100 for 5 min, and blocked with 10% BSA for 30 min. For Alexa Fluor 488 anti-mouse IgGs, cells were stained with DAPI for 10 min. For B23, histone 1 or GAPDH antibody transfection, cells were stained with Alexa Fluor 488 or 546 anti-mouse IgG antibodies for 30 min and then stained with DAPI. For rhSTIP1 proteins or Flag-Rev peptides transfection, cells were stained with anti-v5 or anti-flag antibodies, respectively, and then stained with Alexa Fluor 488 anti-mouse IgG and DAPI. All images were detected by confocal microscopes (Leica, Wetzlar, Germany). The fluorescent signals were analyzed and quantified by Q-Win software (Leica, Wetzlar, Germany).
FIG. 1 schematically illustrates the protein transfection procedure. Briefly, the protein of interest and a protein transfection composition, such as HEPES buffer, were mixed and incubated for about 15 min to about 30 min to form a mixture (Panel A). Cells to be transfected were replaced in a minimal essential medium (Panel B). The mixture in Panel A was added to the cells in Panel B and incubated at 37° C. for about 4 to about 24 hours (Panel C). The protein transfection efficiency can be analyzed using immunofluorescent staining or flow cytometry (Panel D).
An in vitro evaluation of the optimal protein transfection condition was performed. According to the steps in FIG. 1. rhSTIP1 was incubated with HEPES buffers of different concentrations (5 or 20 mM) or Opti-MEM (control) at room temperature for about 15 minutes to form the protein mixtures to transfect human ovarian cancer cells. The mixtures were added to the cell culture dish comprising Opti-MEM and incubated at 37° C. for about 4 to about 24 hours.
Different amounts of Alexa Fluor® 488 anti-mouse IgG (0, 2, 4, 8, or 16 μg) were incubated with 20 mM HEPES buffer and mixed with ovarian (MDAH2774) cancer cells in Opti-MEM.
Alexa Fluor 488 anti-mouse IgG antibodies were mixed with 20 mM HEPES to form a mixture. […] Protein transfection efficiency was assessed using confocal fluorescent microscope.
The following proteins were incubated with Opti-MEM (control group) or 20-30 mM HEPES buffer to transfect ovarian cancer cells (MDAH2774 or MOSEC) or endometrial cancer cells: Alexa Fluor 488-conjugated, anti-mouse IgG antibody (about 150 kDa), anti-B23 antibody, anti-histone 1 antibody, anti-STIP1 antibody, rhSTIP1 protein (62.6 kDa), Flag-Rev peptide (<5 kDa) and FITC-Rev peptide (<5 kDa). […] Protein transfection efficiency was assessed by staining the transfected cancer cells with Alexa Fluor 488 or 594 anti-mouse IgG antibodies (for Alexa Fluor 488-conjugated anti-mouse IgG antibody, anti-B23 antibody, anti-histone 1 antibody, anti-STIP1 antibody), v5 antibody (for rhSTIP1), or anti-Flag antibody (for Flag-Rev peptide), and fluorescent signals were analyzed with confocal microscopy.
The protein transfection efficiency of HEPES was compared to other commercial reagents, such as PULsin™, ProteoJuice™, Pro-Ject™, Xfect™, and BioPORTER®. […] The transfected ovarian cancer cells were stained with Alexa Fluor 488 anti-mouse IgG antibodies and protein transfection efficiency was assessed by confocal fluorescent microscopy.

Data set [5] has as its system human ovarian cancer cells. In words: Cytotoxicity of HEPES buffer concentrations (MTT and LDH assay). It is filed as cell-based. The settings on record: Opti-MEM and HEPES buffer 0-200 mM, 24 h. Here is the method: as §3, §4
For orientation: Tetrazolium dyes change colour on reduction, which living cells bring about.

With `OC[C@H]1O[C@@](CO)(O[C@H]2O[C@H](CO)[C@@H](O)[C@H](O)[C@H]2O)[C@@H](O)[C@@H]1O` [sucrose], in data set [1], the “effect on HEPES-mediated IgG transfection” value (“effect” below) is recorded as “reduced”.

As to `O=S(=O)(O)CCN1CCN(CCO)CC1` [HEPES buffer, 4-(2-hydroxyethyl)-1-piperazineethanesulfonic acid], the “Alexa Fluor 488 anti-mouse IgG signal using HEPES buffer compared to Opti-MEM” value in the data set with colon cancer, with brain tumor, in the data set on renal cell carcinoma, in the data set on non Hodgkin's lymphoma, with nasopharyngeal carcinoma and in the data set on leukemia cells was “increased” in each case. Also, the “Alexa Fluor 488 anti-mouse IgG signal using HEPES buffer compared to Opti-MEM” value (with scarcoma cells; in data set [2]; in [3]) was “increased” each time. Further, the “HEPES buffer concentration at which cell growth was inhibited” value (in the data set with endometrial cancer cells; in data set [5]) was 50 mM in each case. Also, in data set [4] (20-30 mM HEPES buffer, confocal microscopy), the “transfection of Alexa Fluor 488 anti-mouse IgG antibody in the cytoplasm compared to control group (Opti-MEM)” value is recorded as “increased”. The “IgG transfection efficiency compared to commercial protein transfection reagents” value in [4] (anti-GAPDH antibody, HEPES buffer 20 mM vs PULSin, ProteoJuice, Pro-Ject, Xfect, BioPorter) is given as “comparable”. For the same compound, the “protein transfection efficiency, second incubation time 24 hours compared to 4 hours” value in [4] (rhSTIP1, 5 mM HEPES buffer) is “improved”. Besides, the “protein transfection efficiency as a function of HEPES concentration” value in [4] (rhSTIP1 incubated with HEPES about 15 min, cells in Opti-MEM 4 to 24 hours) is on record as “increases with a higher HEPES concentration; also recorded: does not increase further with HEPES concentration higher than 30 to 50 mM”.

For the compound `CCCCC[C@@H](O)[C@H]1C(=O)O[C@H](C)[C@@H](O)/C=C/C=C/C=C/C=C/C=C(\C)[C@@H](O)C[C@H](O)C[C@H](O)C[C@H](O)C[C@H](O)C[C@H](O)C[C@@H]1O` [filipin], in data set [1], the “effect” value is given as “reduced”.

With `N=C(N)NC(=O)c1nc(Cl)c(N)nc1N` [amiloride], in [1], the “effect” value is reported as “reduced”.
